“And” between values parts separate entries of the source, which are not always exact repeats. Equal entries are not always repeated. Toxic doses and inconclusive results are not listed. How the source made its calls: active means survival T/C of 150% or more; inactive means T/C below 125% in these data.
Test system: P388 leukemia ip, CD2F1 mice, survival T/C
Test: NCI In Vivo Anticancer Drug Screen. Data for tumor model P388 Leukemia (intraperitoneal) in CD2F1 (CDF1) mice
Conditions: endpoint: median survival time, higher = longer survival
Method in brief: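 Mice carrying the transplanted tumor received test compound or vehicle. Survival was recorded in each group, and the value is the treated-group measurement divided by that of the vehicle-treated control group.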

[1] = dose: 50.0 mg/kg/injection, schedule: Q01DX009 (ip), vehicle: suspension in saline
[2] = dose: 100.0 mg/kg/injection, schedule: Q01DX009 (ip), vehicle: suspension in saline
[3] = dose: 200.0 mg/kg/injection, schedule: Q01DX009 (ip), vehicle: suspension in saline
[4] = dose: 3.12 mg/kg/injection, schedule: Q01DX005 (ip), vehicle: saline with Tween-80
[5] = dose: 6.25 mg/kg/injection, schedule: Q01DX005 (ip), vehicle: saline with Tween-80
[6] = dose: 100.0 mg/kg/injection, schedule: Q01DX001 (ip), vehicle: saline with Tween-80
[7] = dose: 200.0 mg/kg/injection, schedule: Q01DX001 (ip), vehicle: saline with Tween-80
[8] = dose: 400.0 mg/kg/injection, schedule: Q01DX001 (ip), vehicle: saline with Tween-80
[9] = dose: 60.0 mg/kg/injection, schedule: Q01DX005 (ip), vehicle: Klucel (hydroxypropylcellulose) (HPC)
[10] = dose: 50.0 mg/kg/injection, schedule: Q01DX009 (ip), vehicle: saline with Tween-80
[11] = dose: 100.0 mg/kg/injection, schedule: Q01DX009 (ip), vehicle: saline with Tween-80
[12] = dose: 200.0 mg/kg/injection, schedule: Q01DX009 (ip), vehicle: saline with Tween-80
[13] = dose: 120.0 mg/kg/injection, schedule: Q01DX005 (ip), vehicle: Klucel (hydroxypropylcellulose) (HPC)
[14] = dose: 240.0 mg/kg/injection, schedule: Q01DX005 (ip), vehicle: Klucel (hydroxypropylcellulose) (HPC)
[15] = dose: 50.0 mg/kg/injection, schedule: Q01DX005 (ip), vehicle: Klucel (hydroxypropylcellulose) (HPC)
[16] = dose: 100.0 mg/kg/injection, schedule: Q01DX005 (ip), vehicle: Klucel (hydroxypropylcellulose) (HPC)
[17] = dose: 200.0 mg/kg/injection, schedule: Q01DX005 (ip), vehicle: Klucel (hydroxypropylcellulose) (HPC)
[18] = dose: 6.25 mg/kg/injection, schedule: Q01DX009 (ip), vehicle: saline with Tween-80
[19] = dose: 12.5 mg/kg/injection, schedule: Q01DX009 (ip), vehicle: saline with Tween-80

Measured: T/C

O=C1CCSC(=S)N1c1ccccc1C(F)(F)F
inactive: [1] 90 % of control | [2] 92 % of control | [3] 99 % of control

N#CN(Cc1ccccc1)C(c1ccccc1)(c1ccccc1)c1ccccc1.[I][Sn]([c]1ccccc1)([c]1ccccc1)[c]1ccccc1
inactive: [4] 98 % of control | [5] 92 % of control

NC(N)=O.NC(N)=O.NC(N)=O.NC(N)=O.NC(N)=O.NC(N)=O.[Cr]
inactive: dose: 3.13 mg/kg/injection, schedule: Q04DX003 (ip), vehicle: saline 98 % of control | dose: 6.25 mg/kg/injection, schedule: Q04DX003 (ip), vehicle: saline 101 % of control | dose: 12.5 mg/kg/injection, schedule: Q04DX003 (ip), vehicle: saline 101 % of control and 102 % of control | dose: 25.0 mg/kg/injection, schedule: Q04DX003 (ip), vehicle: saline 103 % of control

CCN(CC)CC.COC(=O)NC#N.[CH-]1CCCCC1.[CH-]1CCCCC1.[CH-]1CCCCC1.[Cl-].[Sn+4]
inactive: [4] 104 % of control | [5] 98 % of control

Brc1cnc2nc(Cc3ccccc3)[nH]c2c1
inactive: [6] 97 % of control | [7] 113 % of control | [8] 97 % of control

CN(C)C1=NC(N(C)C)=C2C=CC=C12
inactive: dose: 15.0 mg/kg/injection, schedule: Q01DX005 (ip), vehicle: Klucel (hydroxypropylcellulose) (HPC) 103 % of control | dose: 30.0 mg/kg/injection, schedule: Q01DX005 (ip), vehicle: Klucel (hydroxypropylcellulose) (HPC) 97 % of control | [9] 96 % of control

Cc1cc(NC(=O)c2ccccc2O)n(-c2ccccc2)n1
inactive: [6] 97 % of control | [7] 100 % of control | [8] 95 % of control

FC(F)(F)c1ccc2cc(C3(C4CCNCC4)CCCO3)c3ccc(C(F)(F)F)cc3c2c1 (stereo not given)
inactive: dose: 12.5 mg/kg/injection, schedule: Q01DX009 (ip), vehicle: distilled water + Tween-80 104 % of control | dose: 25.0 mg/kg/injection, schedule: Q01DX009 (ip), vehicle: distilled water + Tween-80 95 % of control

NC(Cc1ccccc1)P(=O)(O)O (stereo not given)
inactive: dose: 25.0 mg/kg/injection, schedule: Q01DX009 (ip), vehicle: suspension in saline 97 % of control | [1] 99 % of control | [2] 99 % of control | [3] 97 % of control

CCN(CC)c1cc(-c2ccccc2)oc(=O)c1Cl
inactive: [10] 100 % of control | [11] 93 % of control | [12] 97 % of control

CN(C)Cc1ccc(C(C)(C)C)cc1Br
inactive: dose: 12.5 mg/kg/injection, schedule: Q01DX009 (ip), vehicle: water 97 % of control | dose: 25.0 mg/kg/injection, schedule: Q01DX009 (ip), vehicle: water 95 % of control | dose: 50.0 mg/kg/injection, schedule: Q01DX009 (ip), vehicle: water 99 % of control | dose: 100.0 mg/kg/injection, schedule: Q01DX009 (ip), vehicle: water 95 % of control | dose: 200.0 mg/kg/injection, schedule: Q01DX009 (ip), vehicle: water 89 % of control

COC1=C(OC)C(=O)C=CC1=O
inactive: dose: 0.78 mg/kg/injection, schedule: Q01DX009 (ip), vehicle: saline 101 % of control | dose: 1.56 mg/kg/injection, schedule: Q01DX009 (ip), vehicle: saline 94 % of control | dose: 3.13 mg/kg/injection, schedule: Q01DX009 (ip), vehicle: saline 96 % of control | dose: 6.25 mg/kg/injection, schedule: Q01DX009 (ip), vehicle: saline 102 % of control

C=CCc1ccccc1/C=N/NS(=O)(=O)c1ccc(C)cc1
inactive: dose: 100.0 mg/kg/injection, schedule: Q04DX002 (ip), vehicle: saline with Tween-80 100 % of control | dose: 200.0 mg/kg/injection, schedule: Q04DX002 (ip), vehicle: saline with Tween-80 98 % of control | dose: 400.0 mg/kg/injection, schedule: Q04DX002 (ip), vehicle: saline with Tween-80 97 % of control

CSC(=C(C#N)C#N)N1CC1
inactive: dose: 12.5 mg/kg/injection, schedule: Q01DX001 (ip), vehicle: DMSO 103 % of control | dose: 25.0 mg/kg/injection, schedule: Q01DX001 (ip), vehicle: DMSO 97 % of control | dose: 50.0 mg/kg/injection, schedule: Q01DX001 (ip), vehicle: DMSO 96 % of control

CN(C)S(=O)(=O)Nc1cccc(Br)c1
inactive: [10] 103 % of control | [11] 102 % of control | [12] 106 % of control

CC(N)CN1C=NC(C)C1 (stereo not given)
inactive: dose: 50.0 mg/kg/injection, schedule: Q01DX009 (ip), vehicle: saline 97 % of control | dose: 100.0 mg/kg/injection, schedule: Q01DX009 (ip), vehicle: saline 103 % of control | dose: 200.0 mg/kg/injection, schedule: Q01DX009 (ip), vehicle: saline 94 % of control

Nc1ccn(C2OC(COP(=O)(O)O)C(O)C2O)c(=O)n1 (stereo not given) (tested in a mixture with another compound)
inactive: [9] 108 % of control | [13] 99 % of control | [14] 99 % of control

CCn1c2ccccc2c2ccc(N=Nc3ccccc3)cc21
inactive: dose: 100.0 mg/kg/injection, schedule: Q04DX003 (ip), vehicle: Klucel (hydroxypropylcellulose) (HPC) 100 % of control | dose: 200.0 mg/kg/injection, schedule: Q04DX003 (ip), vehicle: Klucel (hydroxypropylcellulose) (HPC) 100 % of control | dose: 400.0 mg/kg/injection, schedule: Q04DX003 (ip), vehicle: Klucel (hydroxypropylcellulose) (HPC) 105 % of control

O=c1ccn(C2OC(COC(c3ccccc3)(c3ccccc3)c3ccccc3)C(OC(c3ccccc3)(c3ccccc3)c3ccccc3)C2O)c(=O)[nH]1 (stereo not given)
inactive: dose: 25.0 mg/kg/injection, schedule: Q01DX005 (ip), vehicle: Klucel (hydroxypropylcellulose) (HPC) 99 % of control | [15] 95 % of control | [16] 105 % of control | [17] 97 % of control

Cc1cc(NC(=O)c2ccc(C(=O)Nc3ccc(N=Nc4cc(S(=O)(=O)O)c5cccc(S(=O)(=O)O)c5c4)c(C)c3)cc2)ccc1N=Nc1cc(S(=O)(=O)O)c2cccc(S(=O)(=O)O)c2c1
inactive: dose: 50.0 mg/kg/injection, schedule: Q01DX005 (ip), vehicle: saline with Tween-80 94 % of control | dose: 100.0 mg/kg/injection, schedule: Q01DX005 (ip), vehicle: saline with Tween-80 93 % of control | dose: 200.0 mg/kg/injection, schedule: Q01DX005 (ip), vehicle: saline with Tween-80 98 % of control

COC(=O)C1=C(C(=O)OC)P2(C)(C)OC(c3ccccc3)CN2C1(c1ccccc1)c1ccccc1 (stereo not given)
inactive: [15] 98 % of control | [16] 100 % of control | [17] 91 % of control

COc1cc2c(cc1-c1coc3cc4occc4cc3c1=O)OCO2
inactive: dose: 8.75 mg/kg/injection, schedule: Q01DX005 (ip), vehicle: saline with Tween-80 87 % of control | dose: 35.0 mg/kg/injection, schedule: Q01DX005 (ip), vehicle: saline with Tween-80 87 % of control | dose: 70.0 mg/kg/injection, schedule: Q01DX005 (ip), vehicle: saline with Tween-80 89 % of control | dose: 140.0 mg/kg/injection, schedule: Q01DX005 (ip), vehicle: saline with Tween-80 99 % of control

CCOc1c(Cl)cc(Cl)cc1C(c1ccccc1S(=O)(=O)O)c1cc(Cl)cc(Cl)c1OCC
inactive: [18] 100 % of control | [19] 91 % of control

N#CC1=C(Nc2ccccc2Cl)SC(c2ccncc2)NC1=O (stereo not given)
inactive: [13] 111 % of control | [14] 105 % of control

O=C1C2=C(Nc3cc(Cl)ccc3N2)OC1c1c[nH]c2ccc(COc3ccccc3)cc12 (stereo not given)
inactive: dose: 60.0 mg/kg/injection, schedule: Q01DX005 (ip), vehicle: saline with Tween-80 93 % of control | dose: 120.0 mg/kg/injection, schedule: Q01DX005 (ip), vehicle: saline with Tween-80 93 % of control | dose: 240.0 mg/kg/injection, schedule: Q01DX005 (ip), vehicle: saline with Tween-80 89 % of control

CCCCNCC(O)c1cc2c(Cl)cc(Cl)cc2c2cc(C(F)(F)F)ccc12 (stereo not given)
inactive: [18] 98 % of control | [19] 106 % of control | dose: 25.0 mg/kg/injection, schedule: Q01DX009 (ip), vehicle: saline with Tween-80 102 % of control
